Measurements: patent US20210138055A1, “COMPOSITIONS, METHODS AND USES FOR MODULATING THE TUMOR MICROENVIRONMENT TO ENHANCE ANTITUMOR IMMUNITY” (COLORADO STATE UNIVERSITY RESEARCH FOUNDATION, priority 2018, published 2021)

Test system: monocytes from healthy dogs
Assay: Monocyte migration inhibition in vitro
Conditions: at relevant serum concentrations (levels achieved by oral dosing); compared to positive and negative controls; FIG. 4

CCCCc1nc(Cl)c(CO)n1Cc1ccc(-c2ccccc2-c2nn[nH]n2)cc1 [losartan]
monocyte migration inhibitory activity: significant inhibitory activity

CC(C)NCC(O)COc1cccc2ccccc12 (centres unmarked) [propranolol]
monocyte migration inhibitory activity: significant inhibitory activity
